Where “and” joins values, the source holds several entries; their conditions need not be identical. Equal entries are not always repeated.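 All cell lines were grown in 96-well plates and treated with compound for 48 hours. Here, GI50 denotes the concentration required for 50% inhibition of growth. TGI is the concentration that stops growth completely.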

Among the test systems are HCC-2998 colon; OVCAR-8 ovarian; HCT-15 colon; SK-OV-3 ovarian; SW-620 colon; ACHN renal; SF-539 CNS; LOX IMVI melanoma; UACC-62 melanoma; HCT-116 colon.
Holding throughout (assay): NCI-60 cell line screen, 48 h

Turning to `COc1cc(-c2nn(-c3cccc(NC(=O)NCCNC(=O)c4ccccc4)c3)cc2-c2ccncc2)ccc1Cl`, the GI50 was 5.42 µM in the test with HCC-2998 colon; 0.576 µM in the test with OVCAR-8 ovarian; 1.97 µM in the test on HCT-15 colon; 4.21 µM in the test on SK-OV-3 ovarian; 0.824 µM in the test on SW-620 colon; 3.14 µM with ACHN renal. The GI50 with SF-539 CNS was 0.859 µM; in the test with LOX IMVI melanoma it was 2.46 µM; in the test with UACC-62 melanoma, 3.08 µM; in the test with HCT-116 colon, 0.392 µM. Also, the TGI is over 100 µM in the test with HCC-2998 colon; 41.7 µM in the test with OVCAR-8 ovarian; over 100 µM in the test with HCT-15 colon; over 100 µM with SK-OV-3 ovarian; over 100 µM in the test with SW-620 colon; over 100 µM in the test with ACHN renal. Also, the TGI with SF-539 CNS is 7.44 µM; in the test on LOX IMVI melanoma it was over 100 µM; with UACC-62 melanoma it was 31.2 µM; in the test with HCT-116 colon it was over 100 µM.
As to `O=c1[nH]c2c(ccc3cnccc32)c2c1CCC2`, the GI50 in the test with HCC-2998 colon was 0.356 µM; in the test on OVCAR-8 ovarian it was 0.331 µM; with HCT-15 colon, 0.357 µM; in the test with SK-OV-3 ovarian, 1.7 µM; in the test with SW-620 colon it was 0.308 µM; in the test on ACHN renal, 0.279 µM. In addition, the GI50 with SF-539 CNS is 0.219 µM; in the test on LOX IMVI melanoma it was 0.282 µM; with UACC-62 melanoma it was 0.214 µM; with HCT-116 colon, 0.267 µM. Further, the TGI with HCC-2998 colon is 1.91 µM; in the test with OVCAR-8 ovarian, over 100 µM; in the test with HCT-15 colon it was over 100 µM; with SK-OV-3 ovarian it was over 100 µM; in the test on SW-620 colon it was 1.84 µM; with ACHN renal, over 100 µM. The TGI in the test on SF-539 CNS was 0.585 µM; in the test on LOX IMVI melanoma, over 33.2 µM; in the test on UACC-62 melanoma, 0.622 µM; in the test on HCT-116 colon, over 45.8 µM.
In the case of `CN1CC[C@H](N(C)C(=O)N2CC(c3cc(F)ccc3F)=C[C@@]2(CO)c2ccccc2)[C@H](F)C1`, the GI50 in the test on HCC-2998 colon was 0.037 µM; with OVCAR-8 ovarian it was 0.058 µM; in the test with HCT-15 colon, 0.00418 µM; with SK-OV-3 ovarian it was 0.00588 µM; in the test on SW-620 colon, 0.00854 µM; with ACHN renal it was 0.0373 µM and 0.0195 µM. In addition, the GI50 in the test on SF-539 CNS was 0.00498 µM; in the test with LOX IMVI melanoma, 0.0415 µM; in the test on UACC-62 melanoma, 0.0386 µM; in the test with HCT-116 colon it was 0.00335 µM. For the same molecule, the TGI with HCC-2998 colon was 13.4 µM; in the test on OVCAR-8 ovarian, over 100 µM; in the test with HCT-15 colon it was over 100 µM; with SK-OV-3 ovarian it was over 100 µM; in the test on SW-620 colon, over 100 µM; in the test with ACHN renal it was over 100 µM. The TGI in the test on LOX IMVI melanoma is over 100 µM; in the test with UACC-62 melanoma it was 25 µM; with HCT-116 colon, over 100 µM.
With `COc1cc(C(=O)N[C@@H]2CCCN(C)C2)ccc1Nc1ncc2c(n1)N(C1CCCC1)CC(C)(C)C(=O)N2C`, the GI50 in the test on HCC-2998 colon is 0.0498 µM; in the test on OVCAR-8 ovarian, 0.0541 µM; in the test on HCT-15 colon it was 0.38 µM; in the test on SK-OV-3 ovarian, 0.0484 µM; with SW-620 colon it was 0.0347 µM; in the test on ACHN renal, 1.55 µM. The GI50 in the test on SF-539 CNS was 0.203 µM; in the test with LOX IMVI melanoma, 0.0541 µM; in the test on UACC-62 melanoma, 0.153 µM; in the test on HCT-116 colon, 0.0509 µM. Besides, the TGI in the test on HCC-2998 colon is 14.7 µM; in the test with OVCAR-8 ovarian it was 16.8 µM; with HCT-15 colon, 14 µM; in the test on SK-OV-3 ovarian it was 2.42 µM; in the test on SW-620 colon, 16.7 µM; with ACHN renal, 19.4 µM. The TGI with SF-539 CNS came out at 1.69 µM; in the test on LOX IMVI melanoma it was 1.87 µM; with UACC-62 melanoma it was 15.5 µM; in the test with HCT-116 colon it was 5.21 µM.
As to `Cc1ccc(CNc2ccc(Cl)cc2NCc2ccc(C)c(O)c2)cc1O`, the GI50 was 8.96 µM in the test on HCC-2998 colon; 8.66 µM with OVCAR-8 ovarian; 5.66 µM in the test with HCT-15 colon; 8.24 µM in the test on SK-OV-3 ovarian; 8.22 µM in the test with SW-620 colon; 6.19 µM in the test with ACHN renal. Besides, the GI50 in the test with SF-539 CNS is 7.31 µM; in the test with LOX IMVI melanoma, 6.93 µM; with UACC-62 melanoma, 7.55 µM; in the test with HCT-116 colon, 7.78 µM. The TGI was 16.6 µM in the test with HCC-2998 colon; 18.4 µM in the test on OVCAR-8 ovarian; 12.2 µM in the test with HCT-15 colon; 15.2 µM with SK-OV-3 ovarian; 16.8 µM in the test on SW-620 colon; 12.6 µM with ACHN renal. The TGI in the test on SF-539 CNS stood at 14.4 µM; in the test on LOX IMVI melanoma it was 13.5 µM; in the test on UACC-62 melanoma, 14.5 µM; with HCT-116 colon it was 14.6 µM.
Regarding `CCN(CC)c1ccc(C=C2C(=O)NC(=S)NC2=O)cc1`, the GI50 was 1.99 µM in the test with HCC-2998 colon; 3.83 µM in the test on OVCAR-8 ovarian; 3.24 µM with HCT-15 colon; 14.8 µM in the test on SK-OV-3 ovarian; 1.91 µM in the test on SW-620 colon; 5.82 µM in the test with ACHN renal. Further, the GI50 in the test on SF-539 CNS was 2.77 µM; in the test on LOX IMVI melanoma, 2.12 µM; with UACC-62 melanoma it was 2.26 µM; in the test with HCT-116 colon, 3.34 µM. Moreover, the TGI with HCC-2998 colon stood at 3.73 µM; with OVCAR-8 ovarian it was 13.4 µM; in the test on HCT-15 colon, 9.22 µM; in the test with SK-OV-3 ovarian, 28 µM; with SW-620 colon it was 4.32 µM; in the test with ACHN renal, 18.5 µM. Also, the TGI stood at 6.15 µM with SF-539 CNS, 4.57 µM with LOX IMVI melanoma, 6.72 µM in the test with UACC-62 melanoma and 8.98 µM in the test on HCT-116 colon.
Consider `CS(=O)c1cc(=O)c2ccccc2s1` (centres undefined), for which the TGI in the test on HCC-2998 colon turned out to be 16.6 µM; in the test with OVCAR-8 ovarian, 8.09 µM; in the test with HCT-15 colon, 6.75 µM; with SK-OV-3 ovarian, 39.4 µM; in the test with SW-620 colon it was 4.2 µM; with ACHN renal, 3.66 µM. For the same molecule, the TGI in the test on SF-539 CNS amounted to 18.4 µM; in the test on LOX IMVI melanoma, 9.02 µM; in the test with UACC-62 melanoma, 17.6 µM; in the test with HCT-116 colon, 5.11 µM.
`COc1ccc(-c2cc(-c3ccc(Cl)cc3)c(C#N)c(=O)n2CCCCCC(=O)Nc2ccccc2N)cc1`: the GI50 is 4.02 µM in the test with HCC-2998 colon; 4.31 µM with OVCAR-8 ovarian; 2.78 µM in the test on HCT-15 colon; 5.36 µM in the test on SK-OV-3 ovarian; 3.87 µM with SW-620 colon; 4.18 µM in the test with ACHN renal. For the same molecule, the GI50 in the test with SF-539 CNS is 9.29 µM; in the test on LOX IMVI melanoma, 1.64 µM; with UACC-62 melanoma, 2.4 µM; in the test with HCT-116 colon, 3.8 µM. The TGI was 36.5 µM in the test on HCC-2998 colon; over 100 µM in the test with OVCAR-8 ovarian; 10.4 µM in the test on HCT-15 colon; 38.4 µM in the test on SK-OV-3 ovarian; over 100 µM with SW-620 colon; over 100 µM with ACHN renal. The TGI with SF-539 CNS is over 100 µM; in the test on LOX IMVI melanoma it was 3.45 µM; in the test with UACC-62 melanoma it was 8.56 µM; with HCT-116 colon, over 100 µM.

For the origin of these results see PubChem BioAssay (NCI).
